Experimental data from US6492559B1, “Alkylated aminoether surfactants” (Air Products and Chemicals, Inc., priority 1998, dated 2002).

Legend:
Format in all cases: physicochemical
[1] = Foam test based upon ASTM D 1173-53; details: 0.1 wt % solution
Method: The foaming properties of 0.1 wt % solutions of the reductive alkylation products of the products of this invention were examined using a procedure based upon ASTM D 1173-53. In this test, a 0.1 wt % solution of the surfactant is added from an elevated foam pipette to a foam receiver containing the same solution. The foam height is measured at the completion of the addition (“Initial Foam Height”) and the time required for the foam to dissipate is recorded (“Time to 0 Foam”). This test provides a comparison between the foaming characteristics of various surfactant solutions. In general, in coatings, inks, and agricultural formulations, foam is undesirable because is complicates handling and can lead to coating and print defects, and to inefficient application of agricultural materials.

[2] = Dynamic surface tension of aqueous solutions, maximum bubble pressure method
Description: where n is 2-6, preferably 2-4; m is 0-4, preferably 0-2; and p and q are 2-6, preferably 2 or 3; and R and R′ independently are an alkyl group comprising 5 to 18 carbons, preferably 5 to 8 carbons which is branched or in which the point of attachment to nitrogen is on a nonterminal carbon, for the reduction of equilibrium and dynamic surface tension in water-based compositions containing an organic compound, particularly coating, ink, and agricultural compositions containing organic compounds such as polymeric resins, herbicides, pesticides or plant growth modifying agents. […] The maximum-bubble-pressure method of measuring surface tension is described in Langmuir 1986, 2, 428-432, which is incorporated by reference.
Dynamic surface tension data were obtained for aqueous solutions of the reductive alkylation product of the dialkylated aminoethylether of Example 1 using the maximum bubble pressure method at bubble rates from 0.1 bubbles/second (b/s) to 20 b/s. […] In practical terms, high bubble rates correspond to high printing speeds in lithographic printing, high spray or roller velocities in coating applications, and rapid application rates for agricultural products.

Solubility in water = assay: Solubility in water

| Initial Foam Height [1] [cm] | Time to 0 Foam [1] [s] | Dynamic Surface Tension ([2]; 0.1 wt % in water, 0.1 b/s) [dyne/cm] | Dynamic Surface Tension ([2]; 0.1 wt % in water, 1 b/s) [dyne/cm] | Dynamic Surface Tension ([2]; 0.1 wt % in water, 6 b/s) [dyne/cm] | Dynamic Surface Tension ([2]; 0.1 wt % in water, 15 b/s) [dyne/cm] | Dynamic Surface Tension ([2]; 0.1 wt % in water, 20 b/s) [dyne/cm] | Dynamic Surface Tension ([2]; 0.15 wt % in water, 0.1 b/s) [dyne/cm] | Dynamic Surface Tension ([2]; 0.15 wt % in water, 1 b/s) [dyne/cm] | Dynamic Surface Tension ([2]; 0.15 wt % in water, 6 b/s) [dyne/cm] | Dynamic Surface Tension ([2]; 0.15 wt % in water, 15 b/s) [dyne/cm] | Dynamic Surface Tension ([2]; 0.15 wt % in water, 20 b/s) [dyne/cm] | Dynamic Surface Tension ([2]; 0.2 wt % in water, 0.1 b/s) [dyne/cm] | Dynamic Surface Tension ([2]; 0.2 wt % in water, 1 b/s) [dyne/cm] | Dynamic Surface Tension ([2]; 0.2 wt % in water, 6 b/s) [dyne/cm] | Dynamic Surface Tension ([2]; 0.2 wt % in water, 15 b/s) [dyne/cm] | Dynamic Surface Tension ([2]; 0.2 wt % in water, 20 b/s) [dyne/cm] | Dynamic Surface Tension ([2]; 0.5 wt % in water, 0.1 b/s) [dyne/cm] | Dynamic Surface Tension ([2]; 0.5 wt % in water, 1 b/s) [dyne/cm] | Dynamic Surface Tension ([2]; 0.5 wt % in water, 6 b/s) [dyne/cm] | also measured | SMILES |
| --- | --- | --- | --- | --- | --- | --- | --- | --- | --- | --- | --- | --- | --- | --- | --- | --- | --- | --- | --- | --- | --- |
| 1.0 | 2 | 30.8 | 31.3 | 32.6 | 34.4 | 34.9 | 29.3 | 29.9 | 30.1 | 32.9 | 33.3 | – | – | – | – | – | – | – | – | – | CC(C)CC(C)NCCCOCCCNC(C)CC(C)C (stereo not shown) [APE/MIBK2] |
| – | – | 30.3 | 30.8 | 31.8 | 33.4 | 34.1 | 27.6 | 27.9 | 28.7 | 30.1 | 30.6 | 26.7 | 26.9 | 27.4 | 28.8 | 29.3 | – | – | – | solubility limit (Solubility in water): about 0.2 wt %; Dynamic Surface Tension ([2]; 0.03 wt % in water, 0.1 b/s): 37.9 dyne/cm; Dynamic Surface Tension ([2]; 0.03 wt % in water, 1 b/s): 39.0 dyne/cm; Dynamic Surface Tension ([2]; 0.03 wt % in water, 6 b/s): 42.8 dyne/cm; Dynamic Surface Tension ([2]; 0.03 wt % in water, 15 b/s): 47.9 dyne/cm; Dynamic Surface Tension ([2]; 0.03 wt % in water, 20 b/s): 48.2 dyne/cm; Dynamic Surface Tension ([2]; 0.05 wt % in water, 0.1 b/s): 34.7 dyne/cm; Dynamic Surface Tension ([2]; 0.05 wt % in water, 1 b/s): 35.4 dyne/cm; Dynamic Surface Tension ([2]; 0.05 wt % in water, 6 b/s): 37.6 dyne/cm; Dynamic Surface Tension ([2]; 0.05 wt % in water, 15 b/s): 40.9 dyne/cm; Dynamic Surface Tension ([2]; 0.05 wt % in water, 20 b/s): 41.9 dyne/cm; Dynamic Surface Tension ([2]; 0.07 wt % in water, 0.1 b/s): 32.4 dyne/cm; Dynamic Surface Tension ([2]; 0.07 wt % in water, 1 b/s): 33.0 dyne/cm; Dynamic Surface Tension ([2]; 0.07 wt % in water, 6 b/s): 34.5 dyne/cm; Dynamic Surface Tension ([2]; 0.07 wt % in water, 15 b/s): 36.8 dyne/cm; Dynamic Surface Tension ([2]; 0.07 wt % in water, 20 b/s): 37.7 dyne/cm | CC(C)CC(C)NCCOCCNC(C)CC(C)C (stereo not shown) [AEE/MIBK2] |
| 3.1 | 5 | 39.2 | 39.7 | 40.8 | 42.0 | 42.2 | – | – | – | – | – | – | – | – | – | – | 30.6 | 30.7 | 31.0 | Dynamic Surface Tension ([2]; 0.5 wt % in water, 15 b/s): 31.8 dyne/cm; Dynamic Surface Tension ([2]; 0.5 wt % in water, 20 b/s): 32.2 dyne/cm | CC(C)CC(C)NCCCOCCOCCOCCCNC(C)CC(C)C (stereo not shown) [BAPEE/MIBK2] |
| 2.6 | 8 | 35.5 | 36.0 | 37.2 | 38.7 | 39.2 | – | – | – | – | – | 31.6 | 32.0 | 32.9 | 33.8 | 34.1 | 29.7 | 29.8 | 30.1 | solubility (in words) (Solubility in water): relatively high solubility; Dynamic Surface Tension ([2]; 0.5 wt % in water, 15 b/s): 30.8 dyne/cm; Dynamic Surface Tension ([2]; 0.5 wt % in water, 20 b/s): 31.0 dyne/cm | CC(C)CC(C)NCCCOCCOCCCNC(C)CC(C)C (stereo not shown) [BAPE/MIBK2] |
